Assay results: US20110117227A1, “COSMETIC COMPOSITION FOR ANTI-AGING OF THE SKIN COMPRISING PHASEOLUS RADIATUS SEED EXTRACTS BY FERMENTATION AND ENZYME TREATMENT” (COREANA COSMETICS, CO., LTD., priority 2008, published 2011)

Legend:
Type in all cases: cell-based
Human normal fibroblasts [1] = test: Collagen biosynthesis (procollagen type I C-peptide level) in human normal fibroblasts; settings: positive control 250 uM, PICP
Method: Human normal fibroblasts were inoculated in a 48-well microplate ([…]) containing DMEM (Dulbecco's Modified Eagle Medium), followed by culture at 37° C. for 24 hours. […] After the culture, supernatant of each well was collected and procollagen type I C-peptide (PICP) level therein was measured using the kit (Takara, Japan) to calculate the amount of collagen newly synthesized. PICP level was calculated as ng/ml. […] The increasing rate of collagen biosynthesis was calculated according to the following Math Figure 1 and the results are shown in Table 2.

[2] = test system: Human skin cells, fibroblasts; test: Alleviation of cell irritation caused by lactic acid (MTT cell survival); settings: lactic acid 0.2% only (comparative control), 12 hours
Method: Human skin cells, fibroblasts (KCTC, Korean Collection for Type Culture, Korea), were cultured in T-75 flask (Falcon, USA) until the cell confluency reached 80%. The cells were transferred to a 96-well plate (Falcon, USA) at the density of 3×10^4 cells/well, followed by further culture for 24 hours. After the culture, the cells were observed under microscope if they were completely adhered and well-grown. As a stimulus for skin, lactic acid (0.2%) was used. Particularly, 200 μl of each DMEM supplemented with 0.2% lactic acid and DMEM not-containing lactic acid was added to each well, to which the Phaseolus radiatus extract, the Phaseolus radiatus liquor of yeast-fermentation, the Phaseolus radiatus liquor of lactic acid bacterium-fermentation, the Phaseolus radiatus extract of enzyme treatment-yeast fermentation, the Phaseolus radiatus extract of enzyme treatment-lactic acid bacterium fermentation (Comparative Manufacturing Examples 1-5), and the Phaseolus radiatus extract of fermentation-enzyme treatment (Manufacturing Examples 1 and 2) were added thereto at the concentration of 1.0% (v/v). […] Particularly, MTT (Sigma, USA) solution (3 mg/ml) was added thereto and then Absorbance at 570 nm was measured using ELISA reader (Molecular Devices, USA).

Human normal fibroblasts [3] = test: Fibroblast proliferation (MTT); settings: positive control 10 ng/ml
Method: Human normal fibroblasts were inoculated in a 96-well microplate (1×10^4 cells/well) containing DMEM, followed by culture at 37° C. for 24 hours. The Phaseolus radiatus extract prepared in Comparative Manufacturing Example 1, the Phaseolus radiatus liquor of yeast-fermentation prepared in Comparative Manufacturing Example 2, the Phaseolus radiatus liquor of lactic acid bacterium-fermentation prepared in Comparative Manufacturing Example 3, the Phaseolus radiatus extract of enzyme treatment-yeast fermentation prepared in Comparative Manufacturing Example 4, the Phaseolus radiatus extract of enzyme treatment-lactic acid bacterium fermentation prepared in Comparative Manufacturing Example 5, the Phaseolus radiatus extract of yeast fermentation-enzyme treatment prepared in Manufacturing Example 1 and the Phaseolus radiatus extract of lactic acid bacterium fermentation-enzyme treatment prepared in Manufacturing Example 2 were treated to the experimental group in which the final concentration of the respective extracts or liquors was 1% and medium was replaced with serum-free medium, followed by further culture for 24 hours. […] Particularly, MTT (Sigma, USA) solution (3 mg/ml) was added thereto and then Absorbance at 570 nm was measured using ELISA reader (Molecular Devices, USA). […]

## O=C1O[C@H]([C@@H](O)CO)C(O)=C1O [Ascorbic acid, ascorbic acid]
Human normal fibroblasts [1]
  Increasing rate of collagen biosynthesis (%): 72.8%

## CC(O)C(=O)O (stereo not drawn) [lactic acid]
[2]
  Proliferation rate of fibroblast (%): 0.0%

## TGF-β
Human normal fibroblasts [3]
  Proliferation rate of fibroblast (%): 186.6%
